Test results taken from ChEMBL document CHEMBL6182878, “Discovery of novel transforming growth factor β type 1 receptor inhibitors through structure-based virtual screening, preliminary structure-activity relationship study, and biological evaluation in hepatocellular carcinoma” (Bioorg Med Chem, 2025).
Active and inactive are the calls of the source. The rule behind the calls is not given here.

Tests used:
[1] = system: Hep 3B2; experiment: Induction of apoptosis in human Hep3B cells at 10 uM incubated for 48 to 72 hrs in presence of sorafenib by Annexin V-FITC/PI staining based flow cytometry; assay type: functional, cell-based; conditions: time 48-72 hrs
[2] = biological target: Mothers against decapentaplegic homolog 2 (Homo sapiens) (UniProt Q15796); experiment: Inhibition of TGFbeta-induced SMAD2 phosphorylation at S465/467 residues in serum-starved human Hep3B cells preincubated with compound for 30 mins followed by TGFbeta addition and measured after 30 mins by Western blotting analysis; assay type: cell-based; conditions: dose 1-10 µM, time 60.0 min
Mothers against decapentaplegic homolog 2 (Homo sapiens), sequence (Q15796 whole entry): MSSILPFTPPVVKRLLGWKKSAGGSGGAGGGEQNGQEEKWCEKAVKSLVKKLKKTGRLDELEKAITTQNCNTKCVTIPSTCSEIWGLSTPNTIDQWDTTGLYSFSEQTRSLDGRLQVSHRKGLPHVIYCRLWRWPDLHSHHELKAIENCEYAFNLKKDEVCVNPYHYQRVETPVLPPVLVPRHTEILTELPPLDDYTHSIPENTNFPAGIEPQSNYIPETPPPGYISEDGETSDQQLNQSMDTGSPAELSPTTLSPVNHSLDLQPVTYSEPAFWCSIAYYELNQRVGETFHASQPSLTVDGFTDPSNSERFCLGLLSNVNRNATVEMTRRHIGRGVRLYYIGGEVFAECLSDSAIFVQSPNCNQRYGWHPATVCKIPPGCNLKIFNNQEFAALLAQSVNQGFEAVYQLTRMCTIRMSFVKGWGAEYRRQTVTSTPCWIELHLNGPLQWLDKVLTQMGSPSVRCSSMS

[3] = system: Hep 3B2; experiment: Growth inhibition of human Hep3B cells incubated for 72 hrs by CCK-8 assay; assay type: functional
[4] = system: Hep 3B2; experiment: Synergistic antiproliferative activity against human Hep3B cells at 1.56 to 3.12 uM in presence of sorafenib; assay type: functional, cell-based; conditions: dose 1.56-3.12 µM
[5] = Inhibition of TGFbeta-dependent SMAD2/3 phosphorylation in mouse NIH3T3 cells incubated for 24 hrs by luciferase reporter assay; conditions: NIH3T3, 24 h
[6] = system: Hep 3B2; experiment: Induction of apoptosis in human Hep3B cells at 10 uM incubated for 48 hrs by Annexin V-FITC/PI staining based flow cytometry; assay type: functional, cell-based
[7] = system: Hep 3B2; experiment: Induction of apoptosis in human Hep3B cells at 5 uM incubated for 72 hrs by Annexin V-FITC/PI staining based flow cytometry; assay type: functional, cell-based

Row | SMILES | Activity [1] | inhibition [2] | GI50 [3] | Activity [4] | EC50 [5] | Activity [6] | Activity [7]
1 | Cc1nc(NS(=O)(=O)c2c[nH]c3ncccc23)ccc1Cl | Active | Dose-dependent-effect | 2280 nM | Active; Compound Showed Moderate Activity | 160 nM | Active | –
2 | Cc1cccc(-c2nn3c(c2-c2ccnc4ccc(C(N)=O)cc24)CCC3)n1 [GALUNISERTIB] | – | Dose-dependent-effect | 1070 nM | – | 47.7 nM | – | –
3 | O=S(=O)(Nc1ccc(Cl)cn1)c1c[nH]c2ncccc12 | – | – | 2860 nM | – | 214 nM | – | –
4 | COc1ccc(NS(=O)(=O)c2c[nH]c3ncccc23)cc1 | – | – | 5710 nM | – | 534 nM | – | –
5 | CNC(=O)c1cc(Oc2ccc(NC(=O)Nc3ccc(Cl)c(C(F)(F)F)c3)cc2)ccn1 | – | – | – | – | – | – | Active
